Results from the NIST ThermoML archive (doi:10.1021/je100529s).
Numbers after ± are expanded uncertainties.

Experiment: activity coefficient (dimensionless); of the first substance listed, at infinite dilution; xn = mol fraction of the nth substance listed
Conditions: Liquid, Gas Stripping Method, x1 = 0

SMILES | activity coefficient (299.99 K) | activity coefficient (309.99 K) | activity coefficient (319.99 K) | activity coefficient (329.99 K) | activity coefficient (340.02 K) | activity coefficient (289.98 K) | activity coefficient (299.98 K) | activity coefficient (289.97 K) | activity coefficient (309.98 K) | activity coefficient (319.98 K) | activity coefficient (340.01 K)
C=CCC [1-butene] + Cc1ccccc1O | 4.29 ± 0.26 | 4.15 ± 0.25 | 4.03 ± 0.24 | 3.87 ± 0.23 |  |  |  |  |  |  | 
CCC [propane] + Cc1ccc(O)cc1 |  | 6.29 ± 0.38 | 6.12 ± 0.37 | 5.93 ± 0.36 | 5.74 ± 0.34 |  |  |  |  |  | 
CC(F)F [1,1-difluoroethane] + Cc1ccc(O)cc1 |  | 4.46 ± 0.27 | 4.26 ± 0.26 | 4.07 ± 0.24 | 3.88 ± 0.23 |  |  |  |  |  | 
C=C(C)C [2-methylpropene] + Cc1cccc(O)c1 |  | 4.42 ± 0.27 | 4.3 ± 0.26 | 4.16 ± 0.25 |  | 4.66 ± 0.28 | 4.56 ± 0.27 |  |  |  | 
CCC [propane] + Cc1ccccc1O | 6.34 ± 0.38 | 6.04 ± 0.36 | 5.83 ± 0.35 | 5.58 ± 0.33 |  |  |  |  |  |  | 
CCCl [chloroethane] + Cc1cccc(O)c1 |  |  | 1.99 ± 0.12 | 1.93 ± 0.12 |  |  | 2.1 ± 0.13 | 2.13 ± 0.13 | 2.05 ± 0.12 |  | 
C/C=C/C [(E)-2-butene] + Cc1ccccc1O | 4.25 ± 0.26 | 4.13 ± 0.25 | 3.98 ± 0.24 | 3.82 ± 0.23 |  |  |  |  |  |  | 
C=CC=C [1,3-butadiene] + Cc1ccc(O)cc1 |  | 3.26 ± 0.2 | 3.16 ± 0.19 | 3.07 ± 0.18 | 2.99 ± 0.18 |  |  |  |  |  | 
CCCC [butane] + Cc1ccc(O)cc1 |  | 6.88 ± 0.41 | 6.62 ± 0.4 | 6.32 ± 0.38 | 6.09 ± 0.37 |  |  |  |  |  | 
CC(C)C [2-methylpropane] + Cc1ccccc1O | 7.92 ± 0.48 | 7.57 ± 0.45 | 7.14 ± 0.43 | 6.73 ± 0.4 |  |  |  |  |  |  | 
COC [dimethyl ether] + Cc1cccc(O)c1 |  |  | 0.18 ± 0.01 | 0.2 ± 0.01 |  |  | 0.13 ± 0.01 | 0.11 ± 0.01 | 0.15 ± 0.01 |  | 
C=C(C)C [2-methylpropene] + Cc1ccccc1O | 4.11 ± 0.25 | 3.98 ± 0.24 | 3.84 ± 0.23 | 3.7 ± 0.22 |  |  |  |  |  |  | 
CC(C)C [2-methylpropane] + Cc1ccc(O)cc1 |  | 7.93 ± 0.48 | 7.62 ± 0.46 | 7.3 ± 0.44 | 7.03 ± 0.42 |  |  |  |  |  | 
CCCl [chloroethane] + Cc1ccccc1O | 1.83 ± 0.11 |  |  | 1.7 ± 0.1 |  |  |  |  | 1.77 ± 0.11 | 1.76 ± 0.11 | 
CC(F)F [1,1-difluoroethane] + Cc1cccc(O)c1 |  | 4.37 ± 0.26 | 4.16 ± 0.25 | 3.98 ± 0.24 |  | 4.79 ± 0.29 | 4.59 ± 0.28 |  |  |  | 
C=CC [propene] + Cc1ccccc1O | 3.81 ± 0.23 | 3.71 ± 0.22 | 3.6 ± 0.22 | 3.48 ± 0.21 |  |  |  |  |  |  | 
C=CC=C [1,3-butadiene] + Cc1ccccc1O | 2.87 ± 0.17 | 2.81 ± 0.17 | 2.72 ± 0.16 | 2.63 ± 0.16 |  |  |  |  |  |  | 
CCCC [butane] + Cc1ccccc1O | 6.92 ± 0.42 | 6.61 ± 0.4 | 6.26 ± 0.38 | 5.92 ± 0.36 |  |  |  |  |  |  | 

SMILES | activity coefficient (299.99 K) | activity coefficient (309.99 K) | activity coefficient (319.99 K) | activity coefficient (329.99 K) | activity coefficient (340.02 K) | activity coefficient (289.98 K) | activity coefficient (299.98 K) | activity coefficient (289.97 K) | activity coefficient (309.98 K) | activity coefficient (319.98 K) | activity coefficient (340.01 K)
C=CC [propene] + Cc1ccc(O)cc1 |  | 4.07 ± 0.24 | 4.02 ± 0.24 | 3.92 ± 0.24 | 3.84 ± 0.23 |  |  |  |  |  | 
C=C(C)C [2-methylpropene] + Cc1ccc(O)cc1 |  | 4.44 ± 0.27 | 4.34 ± 0.26 | 4.2 ± 0.25 | 4.07 ± 0.24 |  |  |  |  |  | 
CCCC [butane] + Cc1cccc(O)c1 |  | 6.88 ± 0.41 | 6.6 ± 0.4 | 6.33 ± 0.38 |  | 7.22 ± 0.43 | 7.06 ± 0.42 |  |  |  | 
CC(C)C [2-methylpropane] + Cc1cccc(O)c1 |  | 7.87 ± 0.47 | 7.54 ± 0.45 | 7.21 ± 0.43 |  | 8.35 ± 0.5 | 8.11 ± 0.49 |  |  |  | 
CCC [propane] + Cc1cccc(O)c1 |  | 6.24 ± 0.37 | 6.06 ± 0.36 | 5.88 ± 0.35 |  | 6.31 ± 0.38 | 6.36 ± 0.38 |  |  |  | 
C=CCC [1-butene] + Cc1cccc(O)c1 |  | 4.62 ± 0.28 | 4.48 ± 0.27 | 4.36 ± 0.26 |  | 4.86 ± 0.29 | 4.75 ± 0.29 |  |  |  | 
C=CC [propene] + Cc1cccc(O)c1 |  | 4.05 ± 0.24 | 3.97 ± 0.24 | 3.88 ± 0.23 |  | 4.1 ± 0.25 | 4.13 ± 0.25 |  |  |  | 
C=CC=C [1,3-butadiene] + Cc1cccc(O)c1 |  | 3.22 ± 0.19 | 3.13 ± 0.19 | 3.05 ± 0.18 |  | 3.32 ± 0.2 | 3.26 ± 0.2 |  |  |  | 
COC [dimethyl ether] + Cc1ccccc1O | 0.1 ± 0.01 |  |  | 0.18 ± 0.01 |  |  |  |  | 0.12 ± 0.01 | 0.14 ± 0.01 | 
COC [dimethyl ether] + Cc1ccc(O)cc1 |  |  |  | 0.21 ± 0.01 |  |  |  |  | 0.16 ± 0.01 | 0.19 ± 0.01 | 0.24 ± 0.02
C=CCC [1-butene] + Cc1ccc(O)cc1 |  | 4.66 ± 0.28 | 4.55 ± 0.27 | 4.4 ± 0.26 | 4.26 ± 0.26 |  |  |  |  |  | 
C/C=C\C [(Z)-2-butene] + Cc1ccc(O)cc1 |  | 4.12 ± 0.25 | 4.03 ± 0.24 | 3.91 ± 0.23 | 3.8 ± 0.23 |  |  |  |  |  | 
C/C=C/C [(E)-2-butene] + Cc1cccc(O)c1 |  | 4.49 ± 0.27 | 4.35 ± 0.26 | 4.23 ± 0.25 |  | 4.68 ± 0.28 | 4.57 ± 0.27 |  |  |  | 
CCCl [chloroethane] + Cc1ccc(O)cc1 |  |  |  | 1.98 ± 0.12 |  |  |  |  | 2.09 ± 0.13 | 2.06 ± 0.12 | 1.93 ± 0.12
C/C=C/C [(E)-2-butene] + Cc1ccc(O)cc1 |  | 4.48 ± 0.27 | 4.35 ± 0.26 | 4.25 ± 0.26 | 4.14 ± 0.25 |  |  |  |  |  | 
C/C=C\C [(Z)-2-butene] + Cc1ccccc1O | 3.79 ± 0.23 | 3.69 ± 0.22 | 3.57 ± 0.21 | 3.44 ± 0.21 |  |  |  |  |  |  | 
C/C=C\C [(Z)-2-butene] + Cc1cccc(O)c1 |  | 4.09 ± 0.25 | 3.99 ± 0.24 | 3.88 ± 0.23 |  | 4.29 ± 0.26 | 4.2 ± 0.25 |  |  |  | 
CC(F)F [1,1-difluoroethane] + Cc1ccccc1O | 4.02 ± 0.24 | 3.84 ± 0.23 | 3.67 ± 0.22 | 3.49 ± 0.21 |  |  |  |  |  |  | 
